melting point: 59 °C
SMILES: CO/C=C(/C(=O)OC)c1ccccc1COc1nc(C(F)(F)F)sc1C

Reference: US7166620B2 (dated 2007)
